Patent publication US20120302555A1, “METHOD OF TREATMENT USING EPROSARTAN” (priority 2008, published 2012)
Counter-ions that a name gives are not always drawn.

Columns and labels:
[1] = in vivo; cited from earlier work
[2] = Thermodynamic stability of polymorphic forms; assay type: physicochemical
Description: Crystalline eprosartan acid exists in two different polymorphic forms—the α (alpha) and β (beta) forms. The a polymorphic form of eprosartan acid has the highest thermodynamic stability of up to 200° C. Although the Examples use the α form of eprosartan acid, the β form of eprosartan acid can also be used in the same way.

highest thermodynamic stability of up to [2] | Structure (SMILES) | variable and mean absolute bioavailability [1]
 | CCCCc1ncc(/C=C(\Cc2cccs2)C(=O)O)n1Cc1ccc(C(=O)O)cc1 [eprosartan mesylate] | approximately 13%
up to 200 °C | CCCCc1ncc(/C=C(\Cc2cccs2)C(=O)O)n1Cc1ccc(C(=O)O)cc1 [a polymorphic form of eprosartan acid] | 
